# Source: article PMC13544220, “Glycemic and bodyweight effects of GIPR coding variation reflect differences in surface expression and intrinsic functional impairment” (Science Advances, 2026)
# Changes are numbered by the printed parent chain. Peptide text beside a SMILES is read from it. * marks the point of attachment. Cbz = O=C(OCc1ccccc1)*; OtBu = CC(C)(C)O*
# Experiments:
# [1] = tested on: wild-type and variant SNAP-GIPR in INS-1 cells; assay: Proteasomal inhibition, total SNAP-GIPR in INS-1 cells; type: cell-based, human; conditions: for total SNAP-GIPR level with PSI: 100 μM, 4 h, INS-1, scaled to experimental average without PSI; for total SNAP-GIPR level after proteasomal inhibition: INS-1, 100 μM, 4 hours
# Description: INS-1 cells were reverse transfected with the GIPR variant or wild-type plasmids in 96-well, clear-bottom, black microplates precoated with poly-D-lysine. All variants were tested in parallel on each occasion to control for transfection efficiency differences between experiments. Twelve hours posttransfection, the cells were treated with either vehicle or Proteasome Inhibitor I (Merck) for 4 hours. Following this, the cells were labeled with the cell-permeable SNAP-tag probe BG-OG ([29]) for 10 min at 37°C to label total SNAP. Cells were then imaged as in the “Assessment of surface GIPR expression by SNAP-tag labeling in cell lines” section to establish total GIPR labeling (surface and intracellular). Images were analyzed as in the “Assessment of surface GIPR expression by SNAP-tag labeling in cell lines” section.
# [2] = molecular target: T1, wild-type and variant SNAP-GIPR (Homo sapiens, UniProt P48546, E354Q); assay: cAMP concentration response (HTRF) in AD293 cells, SNAP-GIPR; type: cell-based; conditions: AD293, SNAP-GIPR E354Q, 0.1% BSA
# T1 construct: the endogenous GIPR signal peptide was removed and replaced with a SNAPf tag; host or cells: AD293 (adherent HEK293), transient transfection
# T1 sequence (P48546 22-466 E354Q): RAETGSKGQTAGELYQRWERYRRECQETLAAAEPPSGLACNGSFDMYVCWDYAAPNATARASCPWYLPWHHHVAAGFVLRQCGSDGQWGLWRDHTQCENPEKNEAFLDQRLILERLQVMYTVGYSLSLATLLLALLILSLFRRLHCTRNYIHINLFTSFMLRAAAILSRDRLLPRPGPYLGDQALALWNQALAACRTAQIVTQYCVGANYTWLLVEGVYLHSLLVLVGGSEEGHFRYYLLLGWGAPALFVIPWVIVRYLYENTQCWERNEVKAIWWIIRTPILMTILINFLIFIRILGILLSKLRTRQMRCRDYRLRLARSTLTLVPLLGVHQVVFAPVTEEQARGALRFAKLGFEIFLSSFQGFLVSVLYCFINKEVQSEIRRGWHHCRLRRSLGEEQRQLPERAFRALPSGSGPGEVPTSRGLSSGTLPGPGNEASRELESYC
# Description: (Imperial College London): 24 hours before the experiment, AD293 cells were reverse transfected with the GIPR variant or wild-type plasmids using Lipofectamine 2000 in 12-well plates. All variants were tested in parallel on each occasion to control for transfection efficiency differences between experiments. […] Data were fit using a three-parameter logistic model using GraphPad Prism 10.
# hGIPR WT = molecular target: T2, hGIPR WT (Homo sapiens, UniProt P48546); assay: cAMP accumulation in HEK293 cells, untagged GIPR (Eli Lilly); type: cell-based; conditions: HEK-293, untagged, 0.1% casein, (SEM, n), n=4
# T2 construct: expressed in transfected cells; host or cells: HEK293, transient
# T2 sequence (P48546 22-466): T1 sequence (P48546 22-466 E354Q) with Q333E
# [3] = tested on: membranes from untransfected HEK293 cells; assay: [125I]GIP(1-42)OH radioligand binding, untransfected control; parameters: species or system human; conditions: either assay condition
# Description: Radioligand binding to the GIPR variant receptors was performed using the assay procedure described in ([59]) with some slight modification in the buffer. […] A3782), and 25 mM Hepes (Gibco, catalog no. […] The assay was incubated overnight at 25°C and then centrifuged at 1000 rpm (Beckman Coulter, Avanti J-15R).
# [4] = tested on: wild-type and variant SNAP-GIPR in INS-1 cells; assay: Bafilomycin A1 effect on surface SNAP-GIPR in INS-1 cells; type: cell-based, human; conditions: inhibition of constitutive GIPR down-regulation; fig. S2A
# Description: Twenty-four hours before the experiment, AD293 or INS-1 cells were reverse transfected with GIPR variant or wild-type plasmids using Lipofectamine 2000 in 96-well, clear-bottom, black microplates precoated with poly-D-lysine. All variants were tested in parallel on each occasion to control for transfection efficiency differences between experiments.
compound,measurement,setting,value
CC[C@H](C)[C@H](NC(=O)OCc1ccccc1)C(=O)N[C@@H](CCC(=O)OC(C)(C)C)C(=O)N[C@@H](C)C(=O)N[C@H](C=O)CC(C)C [PSI] (Cbz-IE(OtBu)AL-aldehyde),total SNAP-GIPR level with PSI,"[1]; E288G, replicate 1",0.3892
same,total SNAP-GIPR level with PSI,"[1]; E288G, replicate 2",3.417
same,total SNAP-GIPR level with PSI,"[1]; E288G, replicate 3",2.001
same,total SNAP-GIPR level with PSI,"[1]; E288G, replicate 4",0.9026
same,total SNAP-GIPR level with PSI,"[1]; E288G, replicate 5",1.217
same,total SNAP-GIPR level with PSI,"[1]; E354Q, replicate 1",0.9055
same,total SNAP-GIPR level with PSI,"[1]; E354Q, replicate 2",0.737
same,total SNAP-GIPR level with PSI,"[1]; E354Q, replicate 3",1.364
same,total SNAP-GIPR level with PSI,"[1]; E354Q, replicate 4",0.8268
same,total SNAP-GIPR level with PSI,"[1]; E354Q, replicate 5",0.8316
same,total SNAP-GIPR level after proteasomal inhibition,[1]; E288G,significant increase in E288G levels
same,total SNAP-GIPR level after proteasomal inhibition,[1]; R190Q and R101H,numerically similar trends
same,total SNAP-GIPR level after proteasomal inhibition,[1]; wild-type and E354Q,unaffected by proteasomal inhibition
same,total SNAP-GIPR level with PSI,"[1]; R101H, replicate 1",0.131
same,total SNAP-GIPR level with PSI,"[1]; R101H, replicate 2",0.3704
same,total SNAP-GIPR level with PSI,"[1]; R101H, replicate 3",0.7801
same,total SNAP-GIPR level with PSI,"[1]; R101H, replicate 4",0.651
same,total SNAP-GIPR level with PSI,"[1]; R101H, replicate 5",0.8591
same,total SNAP-GIPR level with PSI,"[1]; R190Q, replicate 1",0.3291
same,total SNAP-GIPR level with PSI,"[1]; R190Q, replicate 2",0.5524
same,total SNAP-GIPR level with PSI,"[1]; R190Q, replicate 3",1.18
same,total SNAP-GIPR level with PSI,"[1]; R190Q, replicate 4",0.5932
same,total SNAP-GIPR level with PSI,"[1]; R190Q, replicate 5",0.77
same,total SNAP-GIPR level with PSI,"[1]; WT, replicate 1",4.2848
same,total SNAP-GIPR level with PSI,"[1]; WT, replicate 2",3.795
same,total SNAP-GIPR level with PSI,"[1]; WT, replicate 3",3.454
same,total SNAP-GIPR level with PSI,"[1]; WT, replicate 4",1.746
same,total SNAP-GIPR level with PSI,"[1]; WT, replicate 5",2.287
CC[C@H](C)[C@H](NC(=O)[C@H](CC(C)C)NC(=O)[C@H](Cc1c[nH]c2ccccc12)NC(=O)[C@H](CCC(N)=O)NC(=O)[C@@H](NC(=O)[C@H](Cc1ccccc1)NC(=O)[C@H](C)NC(=O)[C@H](CCCCNC(=O)COCCOCCNC(=O)COCCOCCNC(=O)CC[C@H](NC(=O)CCCCCCCCCCCCCCCCCCC(=O)O)C(=O)O)NC(=O)[C@H](CCC(N)=O)NC(=O)[C@H](C)NC(=O)[C@@H](NC(=O)[C@H](CCCCN)NC(=O)[C@H](CC(=O)O)NC(=O)[C@H](CC(C)C)NC(=O)C(C)(C)NC(=O)[C@@H](NC(=O)[C@H](CO)NC(=O)[C@H](Cc1ccc(O)cc1)NC(=O)[C@H](CC(=O)O)NC(=O)[C@H](CO)NC(=O)[C@@H](NC(=O)[C@H](Cc1ccccc1)NC(=O)[C@@H](NC(=O)CNC(=O)[C@H](CCC(=O)O)NC(=O)C(C)(C)NC(=O)[C@@H](N)Cc1ccc(O)cc1)[C@@H](C)O)[C@@H](C)O)[C@@H](C)CC)[C@@H](C)CC)C(C)C)C(=O)N[C@@H](C)C(=O)NCC(=O)NCC(=O)N1CCC[C@H]1C(=O)N[C@@H](CO)C(=O)N[C@@H](CO)C(=O)NCC(=O)N[C@@H](C)C(=O)N1CCC[C@H]1C(=O)N1CCC[C@H]1C(=O)N1CCC[C@H]1C(=O)N[C@@H](CO)C(N)=O [tirzepatide],cAMP signaling (∆LogEmax/EC50),[2],increased cAMP signaling
same,Emax,hGIPR WT,90.6%
[125I]GIP(1-42)OH: radioligand [125I]GIP(1-42)OH (Revvity),"specific binding, untransfected HEK293 membranes",[3],no significant specific binding detected
CO/C1=C\C(C)=C\[C@@H](C)[C@@H](O)[C@@H](C)C/C(C)=C/C=C/[C@H](OC)[C@@H]([C@@H](C)[C@@H](O)[C@H](C)[C@@]2(O)C[C@@H](O)[C@H](C)[C@@H](C(C)C)O2)OC1=O [bafilomycin A1],rescue of surface expression of GIPR variants,[4],did not lead to disproportionate “rescue”
